US9359298B2, “Cajanine structure analogous compound, preparation method and use” (INSTITUTE OF MEDICINAL BIOTECHNOLOGY, CHINESE ACADEMY OF …, priority 2011, dated 2016)
Values after ≈ are worked out from the molar mass of the structure shown. Like-named read-outs stand apart in the source and are kept apart here.

Assays:
Assay type in all cases: cell-based
[1] = system: Influenza A virus (hanfang359/95); experiment: Determination of anti-influenza virus activity (CPE in MDCK cells); details: for IC50: Influenza A virus, MDCK, 36 h; for anti-influenza virus activities compared with the lead compound cajanine: statement in words
[2] = system: Coxsackie virus B6; experiment: Coxsackie virus activity assay (CPE in Vero cells); details: Vero, read-out: COX-B6 IC50, Vero cells, about 100TCID50, CPE, Reed-Muench
[3] = system: HCV; experiment: Anti-hepatitis C virus (HCV) activity assay (HCV RNA in Huh7.5 cells); details: for EC50: Hepatitis C virus, Huh7.5, 72 h, read-out: HCV EC50; for anti-HCV viral activity: statement in words
Procedure: Inoculate Huh7.5 cells into 96-well plates to a density of 3×10^4 cells/cm^2, culture for 24h, infect the cells with 45 IU/cell HCV supernatant, meanwhile, add drug solutions or solvent control for treatment.

[4] = system: HIV-1 III B virus; experiment: Anti-HIV activity assay (P24 antigen in MT-4 cells); details: for IC50: Human immunodeficiency virus 1, MT4, 96 h, read-out: HIV IC50; for anti-HIV viral activity: statement in words
[5] = system: PC12 cells; experiment: Neuroprotective activity assay, serum-deprived injury to PC12 cells (MTT); details: for viability at 10 µM: Rattus norvegicus, PC-12, 48 h, 10 μM test compound, 48 h, Control 100.0 ± 9.2, Model 69.3 ± 4.1, read-out: serum-deprived (surviving PC12 cells, MTT 570 nm); for protective effect on serum-deprived injury to PC12 cells: statement in words
Procedure: (§1) Discard the original culture media from confluent monolayers of PC12 cells (simulated neuronal cells), add DMEM complete medium with 5% FBS, 5% horse serum gently beat upon the cells with a pipette to completely disperse them, inoculate 100 μl cell suspension at a density of […] per well to 96 hole plates treated with poly-lysine (0.1 mg/ml) in advance, culture for 24h. Divide the experimenting cells into control group, model group and dosing groups. Add complete medium to the control group. Model groups includes rotenone group and serum-deprived group, add rotenone to the corresponding modules with a final concentration of 4 μM rotenone to take effect on the cells for 48 h, add serum-deprived groups with serum-free DMEM medium to take effect on the cells for 48 h. Dosing groups also includes two groups, one using rotenone module as model, another using serum-deprived module as model, and both add in 10 μM test compounds during modeling. 48h later, add 10 μl 5 mg/ml MTT, subsequently discard the supernatant 4h later and add in 150 μl DMSO, measure 570 nm absorbance to represent the numbers of surviving cells.

[6] = system: PC12 cells; experiment: Neuroprotective activity assay, rotenone injury to PC12 cells (MTT); details: for viability at 10 µM: Rattus norvegicus, PC-12, 48 h, 10 μM test compound, 4 μM rotenone, 48 h, Control 100.0 ± 8.9, Model 73.2 ± 7.8, read-out: rotenone (surviving PC12 cells, MTT 570 nm); for protective effect on rotenone injury to PC12 cells: statement in words
Procedure: as §1

[7] = Huh7.5 cells, 72 h, HCV RNA by RT-PCR, Reed-Muench
[8] = MT-4 cells, HIV-1 III B 100TCID50, 96 h, P24 antigen

## COc1cc(/C=C/c2ccncc2)c(C(=O)O)c(O)c1CC=C(C)C [Compound 1r, 2-hydroxy-3-isopentenyl-4-methoxy-6-[(E)-2-(pyridin-4-yl)ethenyl]benzoic acid]
[1]
  IC50: 6.36 µg/mL (≈ 18.7 µM)
[2]
  IC50: 6.35 µg/mL (≈ 18.7 µM)
[3]; [7]
  EC50: 6.79 µg/mL (≈ 20 µM)
[4]; [8]
  IC50: 6.53 µg/mL (≈ 19.2 µM)
[5]
  viability at 10 µM: 84.3 ± 6.3%
  protective effect on serum-deprived injury to PC12 cells: the strongest activities
[6]
  viability at 10 µM: 86.3 ± 5.4%
  protective effect on rotenone injury to PC12 cells: the strongest activities

## COc1cc(/C=C(\C(=O)O)c2ccccc2)c(C(=O)O)c(O)c1CC=C(C)C [Compound 1s]
[1]
  IC50: 0.54 µg/mL (≈ 1.41 µM)
[2]
  IC50: 0.85 µg/mL (≈ 2.22 µM)
[3]; [7]
  EC50: 0.84 µg/mL (≈ 2.2 µM)
[3]
  anti-HCV viral activity: stronger anti-HIV, HCV viral activities
[4]; [8]
  IC50: 0.75 µg/mL (≈ 1.96 µM)
[4]
  anti-HIV viral activity: stronger anti-HIV, HCV viral activities
[5]
  viability at 10 µM: 89.8 ± 3.2%
[6]
  viability at 10 µM: 88.7 ± 6.1%

## COc1cc(/C=C/c2ccccn2)c(C(=O)O)c(O)c1CC=C(C)C [Compound 1t, 2-hydroxy-3-isopentenyl-4-methoxy-6-[(E)-2-(pyrid-2-yl)ethenyl]benzoic acid]
[1]
  IC50: 0.34 µg/mL (≈ 1 µM)
  anti-influenza virus activities compared with the lead compound cajanine: significantly stronger than the lead compound cajanine
[2]
  IC50: 0.61 µg/mL (≈ 1.8 µM)
[3]; [7]
  EC50: 1.58 µg/mL (≈ 4.66 µM)
[4]; [8]
  IC50: 1.07 µg/mL (≈ 3.15 µM)
[5]
  viability at 10 µM: 85.1 ± 2.1%
[6]
  viability at 10 µM: 84.6 ± 1.2%

## COc1cc(/C=C/c2cc(OC)c(OC)c(OC)c2)c(C(=O)O)c(O)c1CC=C(C)C [Compound 1u, 2-hydroxy-3-isopentenyl-4-methoxy-6-[(E)-(3,4,5-trimethoxystyryl)]benzoic acid]
[1]
  IC50: 0.21 µg/mL (≈ 0.49 µM)
  anti-influenza virus activities compared with the lead compound cajanine: significantly stronger than the lead compound cajanine
[2]
  IC50: 0.14 µg/mL (≈ 0.327 µM)
[3]; [7]
  EC50: 0.84 µg/mL (≈ 1.96 µM)
[3]
  anti-HCV viral activity: stronger anti-HIV, HCV viral activities
[4]; [8]
  IC50: 0.16 µg/mL (≈ 0.373 µM)
[4]
  anti-HIV viral activity: stronger anti-HIV, HCV viral activities
[5]
  viability at 10 µM: 89.3 ± 2.3%
  protective effect on serum-deprived injury to PC12 cells: the strongest activities
[6]
  viability at 10 µM: 90 ± 3.2%
  protective effect on rotenone injury to PC12 cells: the strongest activities

## COc1ccnc(/C=C/c2cc(OC)c(CC=C(C)C)c(O)c2C(=O)O)c1 [Compound 1v, 2-hydroxy-3-isopentenyl-4-methoxy-6-[(E)-2-(4-methoxypyrid-2-yl)ethenyl]benzoic acid]
[1]
  IC50: 2.31 µg/mL (≈ 6.25 µM)
[2]
  IC50: 1.25 µg/mL (≈ 3.38 µM)
[3]
  EC50: 1.25 µg/mL (≈ 3.38 µM)
[4]; [8]
  IC50: 1.48 µg/mL (≈ 4.01 µM)
[5]
  viability at 10 µM: 79.9 ± 1.6%
[6]
  viability at 10 µM: 87.2 ± 2.6%

## COc1cc(/C=C/c2cc(O)ccn2)c(C(=O)O)c(O)c1CC=C(C)C [Compound 1w, 2-hydroxy-3-isopentenyl-4-methoxy-6-[(E)-2-(4-hydroxypyrid-2-yl)ethenyl]benzoic acid]
[1]
  IC50: 0.19 µg/mL (≈ 0.535 µM)
  anti-influenza virus activities compared with the lead compound cajanine: significantly stronger than the lead compound cajanine
[2]
  IC50: 0.54 µg/mL (≈ 1.52 µM)
[3]; [7]
  EC50: 2.06 µg/mL (≈ 5.8 µM)
[4]; [8]
  IC50: 2.87 µg/mL (≈ 8.08 µM)
[5]
  viability at 10 µM: 89.3 ± 5.4%
  protective effect on serum-deprived injury to PC12 cells: the strongest activities
[6]
  viability at 10 µM: 88.9 ± 2.5%
  protective effect on rotenone injury to PC12 cells: the strongest activities

## COc1cc(/C=C/c2ccc(O)cn2)c(C(=O)O)c(O)c1CC=C(C)C [Compound 1y]
[1]
  IC50: 4.25 µg/mL (≈ 12 µM)
[2]
  IC50: 5.84 µg/mL (≈ 16.4 µM)
[3]; [7]
  EC50: 0.86 µg/mL (≈ 2.42 µM)
[3]
  anti-HCV viral activity: stronger anti-HIV, HCV viral activities
[4]; [8]
  IC50: 0.63 µg/mL (≈ 1.77 µM)
[4]
  anti-HIV viral activity: stronger anti-HIV, HCV viral activities
[5]
  viability at 10 µM: 87.6 ± 1.6%
[6]
  viability at 10 µM: 89.7 ± 1.9%

## COC(=O)c1c(/C=C/c2ccccc2)cc(OC)cc1OC [Compound 6, methyl 2,4-dimethoxy-6-[(E)-styryl]benzoate]
[1]
  IC50: > 2.05 µg/mL
[2]
  IC50: > 2.06 µg/mL
[3]; [7]
  EC50: > 12.2 µg/mL
[4]
  IC50: > 2.06 µg/mL
[5]
  viability at 10 µM: 62.4 ± 7%
[6]
  viability at 10 µM: 74.4 ± 5.2%

## COC(=O)c1c(/C=C/c2ccccc2)cc(OC)c(CC=C(C)C)c1O [Compound 8, methyl 2-hydroxy-3-isopentenyl-4-methoxy-6-[(E)-styryl]-benzoate]
[1]
  IC50: 0.69 µg/mL (≈ 1.96 µM)
[2]
  IC50: 3.56 µg/mL (≈ 10.1 µM)
[3]; [7]
  EC50: 0.79 µg/mL (≈ 2.24 µM)
[3]
  anti-HCV viral activity: stronger anti-HIV, HCV viral activities
[4]; [8]
  IC50: 1.06 µg/mL (≈ 3.01 µM)
[4]
  anti-HIV viral activity: stronger anti-HIV, HCV viral activities
[5]
  viability at 10 µM: 76.6 ± 5.8%
[6]
  viability at 10 µM: 78.9 ± 5.7%

## COC(=O)c1c(/C=C/c2ccc(OC)cc2)cc(OC)c(CC=C(C)C)c1O [Compound 8c, methyl 2-hydroxy-3-isopentenyl-4-methoxy-6-[(E)-4-methoxystyryl]-benzoate]
[1]
  IC50: > 2.06 µg/mL
[2]
  IC50: 4.79 µg/mL (≈ 12.5 µM)
[3]; [7]
  EC50: 3.06 µg/mL (≈ 8 µM)
[4]; [8]
  IC50: 1.99 µg/mL (≈ 5.2 µM)
[5]
  viability at 10 µM: 67.3 ± 10%
[6]
  viability at 10 µM: 71.9 ± 6.1%

## COC(=O)c1c(/C=C/c2c(OC)cccc2OC)cc(OC)c(CC=C(C)C)c1O [Compound 8d, methyl 2-hydroxy-3-isopentenyl-4-methoxy-6-[(E)-2,6-dimethoxystyryl]-benzoate]
[1]
  IC50: > 6.17 µg/mL
[2]
  IC50: > 9.26 µg/mL
[3]; [7]
  EC50: 5.17 µg/mL (≈ 12.5 µM)
[4]; [8]
  IC50: 0.86 µg/mL (≈ 2.08 µM)
[5]
  viability at 10 µM: 82 ± 3.2%
  protective effect on serum-deprived injury to PC12 cells: the strongest activities
[6]
  viability at 10 µM: 84.4 ± 3.6%
  protective effect on rotenone injury to PC12 cells: the strongest activities

## CC/C=C/c1cc(OC)c(CC=C(C)C)c(O)c1C(=O)OC [Compound 8h, methyl 2-hydroxy-3-isopentenyl-4-methoxy-6-[(E)-buten-1-yl]-benzoate]
[1]
  IC50: 1.92 µg/mL (≈ 6.31 µM)
[2]
  IC50: > 2.06 µg/mL
[3]; [7]
  EC50: 1.42 µg/mL (≈ 4.67 µM)
[4]; [8]
  IC50: 2.66 µg/mL (≈ 8.74 µM)
[5]
  viability at 10 µM: 35.4 ± 10.6%
[6]
  viability at 10 µM: 72.4 ± 4.3%

## COC(=O)c1c(/C=C(\C)c2ccccc2)cc(OC)c(CC=C(C)C)c1O [Compound 8i, methyl 2-hydroxy-3-isopentenyl-4-methoxy-6-[(E)-2-phenylpropen-1-yl]-benzoate]
[1]
  IC50: > 2.47 µg/mL
[2]
  IC50: 6.89 µg/mL (≈ 18.8 µM)
[3]; [7]
  EC50: 3.47 µg/mL (≈ 9.47 µM)
[4]; [8]
  IC50: 3.8 µg/mL (≈ 10.4 µM)
[5]
  viability at 10 µM: 46.4 ± 16.6%
[6]
  viability at 10 µM: 69.4 ± 2.6%

## COC(=O)c1c(/C=C/CCc2ccccc2)cc(OC)c(CC=C(C)C)c1O [Compound 8l, methyl 2-hydroxy-3-isopentenyl-4-methoxy-6-[(E)-4′-phenylbuten-1′-yl]benzoate]
[1]
  IC50: 5.75 µg/mL (≈ 15.1 µM)
[2]
  IC50: > 6.17 µg/mL
[3]; [7]
  EC50: 5.95 µg/mL (≈ 15.6 µM)
[4]; [8]
  IC50: 5.17 µg/mL (≈ 13.6 µM)
[5]
  viability at 10 µM: 51.1 ± 17%
[6]
  viability at 10 µM: 64.7 ± 1.8%

## COC(=O)c1c(/C=C/c2ccccc2)cc(OC)c(C/C=C(\C)CCC=C(C)C)c1O [Compound 8o, methyl 2-hydroxy-3-(3′,7′-dimethyloctadien-2′,6′-yl)-4-methoxy-6-[(E)-styryl]benzoate]
[1]
  IC50: 0.82 µg/mL (≈ 1.95 µM)
  anti-influenza virus activities compared with the lead compound cajanine: significantly stronger than the lead compound cajanine
[2]
  IC50: 2.36 µg/mL (≈ 5.61 µM)
[3]; [7]
  EC50: 0.92 µg/mL (≈ 2.19 µM)
[4]; [8]
  IC50: 2.96 µg/mL (≈ 7.04 µM)
[5]
  viability at 10 µM: 69.3 ± 5.6%
[6]
  viability at 10 µM: 70.6 ± 6.3%
